# US20160031935A1, “SMALL MOLECULE MODULATORS OF PCSK9 AND METHODS OF USE THEREOF” (ADAERATA, LIMITED PARTNERSHIP, priority 2013, published 2016)
# How the values were obtained:
# [1] = system: cell surface LDLR; assay: FACS assay of LDLR at the HepG2 cell surface; type: cell-based, human; conditions: 10 μM, 24 h; LDLR positive HepG2 cells
# Method: The ability of PCSK9 inhibitory compounds to prevent the activity of PCSK9 on LDLR at the cell surface was also measured by using flow cytometry analyses as described in Benjannet S. et al. J. Biol. Chem. 285: 40965-40978, 2010. The level of LDLR at the HepG2 cell surface was measured by using anti human LDLR antibody (1:100, mAb-C7, Santa Cruz Biotechnology) and a secondary Alexa Fluor 647 donkey anti-mouse (Molecular Probes) antibody. Viable cells (PI-negative) were then analyzed by FACS for both PI and Alexa Fluor 647 using the FACS BD LSR (BD Biosciences). Cell surface LDLR was reported relative to control (untreated cells). The inhibition of the PCSK9 function in these assays was detected by an increased number of positive cells which correlated with an increased expression of LDLR at the cell surface.
# More particularly, Human hepatoblastoma HepG2 cells (4×10^5 cells/well) were seeded in 12 well plates (Greiner BioOne) in complete media and cultured for 20 hours, at 37° C., followed by a 1 hour wash in serum free media at 37° C. Next, the wash media was removed and the cells were incubated overnight (24 hours) with 0.9 ml/well incubation media containing compounds at 10 uM or DMSO control (0.4% final). After one rinse with buffer A followed by another rinse with EDTA solution (2.5 mM EDTA-2Na), the cells were detached by incubation in the presence of fresh EDTA solution (1 ml) at 37° C. for 20 minutes. All the steps following cell detachment were conducted on ice or 4° C. To terminate the detachment, the cells were transferred in a 15 ml tube containing 3 ml of buffer A and centrifuged immediately for 5 minutes at 900 rpm (100 g) (4° C.). The cells were then resuspended in 500 ul buffer A together with 1:250 human LDLR antibody and incubated on ice for 10 minutes. Cells were washed once with 5 ml buffer A, centrifuged for 5 minutes, resuspended in 500 ul buffer A containing 1:500 Alexa Fluor 647 secondary antibody and incubated on ice for 5 min. After the staining, cells were washed once with 5 ml buffer A, centrifuged for 5 minutes and resuspended in 300 ul buffer A containing 1.67 ug/ml propidium iodide. A fixed number (2,000 cells) of viable cells (propidium iodide negative) were then analyzed by FACS for Alexa Fluor 647 (cell surface LDLR) using a FACS-CyAn ADP flow cytometer (Beckman Coulter (DAKO)) and Summit software (Summit Software Inc.).
# Human HepG2 cell line: ATCC, HB-8065 Seeding media: complete media—EMEM (high glucose+sodium pyruvate) (Wisent)+10% FBS Wash media: serum free media—EMEM (high glucose+sodium pyruvate) (Wisent) Incubation media with compounds: EMEM (high glucose+sodium pyruvate) (Wisent)+0.07% BSA (Sigma-Aldrich) BufferA: 1×D-PBS without calcium and magnesium (Wisent 311-425-CL)+0.5% BSA (Sigma A7409-50ml)+[…] Glucose (Wisent 609-036-EL). Primary antibody: human LDLR antibody, monoclonal Mouse IgG1 clone #472413 (MAB2148, R&D Systems) Secondary antibody: Alexa Fluor® 647 goat anti-mouse IgG (H+L)*2 mg/mL*(A21235, Molecular Probes) Propidium iodide: 1 mg/ml solution (P4864, Sigma)
# [2] = system: HepG2 cells; assay: Cell viability assay (cell density during the PCSK9 secretion assay); type: cell-based, human; conditions: 33 μM
# Method: For the cell viability assay, the cell density of HepG2 cells was measured in the presence of 33 μM of compounds or in the presence of DMSO (control) during the PCSK9 secretion assay described in Example 92. Table II below presents compounds with a low toxicity at 33.3 μM or less.
Compound,FACS-LDLR (% DMSO Cnt) [1],Cell viability (% DMSO Cnt) [2]
"CC(C)[C@H](NC(=O)c1ccc(C2(C(F)(F)F)N=N2)cc1)C(=O)N[C@@H](Cc1ccccc1)C(=O)N[C@@H](C)C(=O)NC(CCC(N)=O)C(O)C(F)(F)F (stereo partly drawn) [Example 29, N-((2S)-1-(((2S)-1-(((2S)-1-((6-Amino-1,1,1-trifluoro-2-hydroxy-6-oxohexan-3-yl)amino)-1-oxopropan-2-yl)amino)-1-oxo-3-phenylpropan-2-yl)amino)-3-methyl-1-oxobutan-2-yl)-4-(3-(trifluoromethyl)-3H-diazirin-3-yl)benzamide]",233 ± 50 % DMSO Cnt,88 % DMSO Cnt
"CC(C)[C@H](NC(=O)c1ccc(-c2ccccc2)cc1)C(=O)N[C@@H](Cc1ccccc1)C(=O)N[C@@H](C)C(=O)NC(CCC(N)=O)C(O)C(F)(F)F (stereo partly drawn) [Example 24, N-((2S)-1-(((2S)-1-(((2S)-1-((6-Amino-1,1,1-trifluoro-2-hydroxy-6-oxohexan-3-yl)amino)-1-oxopropan-2-yl)amino)-1-oxo-3-phenylpropan-2-yl)amino)-3-methyl-1-oxobutan-2-yl)-[1,1′-biphenyl]-4-carboxamide]",116 ± 5 % DMSO Cnt,–
"CC(C)[C@H](NC(=O)c1ccc(-c2ccccc2)cc1)C(=O)N[C@@H](Cc1ccccc1)C(=O)NC1(C(=O)N[C@@H](CCC(N)=O)C(O)C(F)(F)F)CCC1 (single isomer, unassigned) [Example 66]",122 ± 11 % DMSO Cnt,–
"CSCC[C@H](NC(=O)c1ccc(-c2ccccc2)cc1)C(=O)N[C@@H](Cc1ccccc1)C(=O)N[C@@H](C)C(=O)NC(CCC(N)=O)C(O)C(F)(F)F (stereo partly drawn) [Example 75, N-((5S,8S,11S)-17-amino-8-benzyl-11-methyl-6,9,12,17-tetraoxo-14-(2,2,2-trifluoro-1-hydroxyethyl)-2-thia-7,10,13-triazaheptadecan-5-yl)-[1,1′-biphenyl]-4-carboxamide]",174 ± 41 % DMSO Cnt,–
"CCCCCCCCCC(=O)N[C@H](C(=O)N[C@@H](Cc1ccccc1)C(=O)N[C@H](C(=O)NC(CCC(N)=O)C(O)C(F)(F)F)C(C)C)C(C)C (stereo partly drawn) [Example 58, N-((2S)-1-(((2S)-1-(((2S)-1-((6-amino-1,1,1-trifluoro-2-hydroxy-6-oxohexan-3-yl)amino)-3-methyl-1-oxobutan-2-yl)amino)-1-oxo-3-phenylpropan-2-yl)amino)-3-methyl-1-oxobutan-2-yl)decanamide]",166 ± 28 % DMSO Cnt,93 % DMSO Cnt
"CCCCCCCCCC(=O)N[C@H](C(=O)N[C@@H](Cc1ccccc1)C(=O)N[C@H](C)C(=O)N[C@@H](CCC(N)=O)C(O)C(F)(F)F)C(C)C (single isomer, unassigned) [Example 60]",138 ± 8 % DMSO Cnt,80 % DMSO Cnt
"CCCCCCCCCC(=O)N[C@H](C(=O)N[C@@H](Cc1ccccc1)C(=O)N[C@@H](Cc1ccccc1)C(=O)NC(CCC(N)=O)C(O)C(F)(F)F)C(C)C (stereo partly drawn) [Example 59, N-((2S)-1-(((2S)-1-(((2S)-1-((6-Amino-1,1,1-trifluoro-2-hydroxy-6-oxohexan-3-yl)amino)-1-oxo-3-phenylpropan-2-yl)amino)-1-oxo-3-phenylpropan-2-yl)amino)-3-methyl-1-oxobutan-2-yl)decanamide]",265 ± 35 % DMSO Cnt,83 % DMSO Cnt
"CC(C)[C@H](NC(=O)c1ccc(-c2ccccc2)cc1)C(=O)N[C@H](Cc1ccccc1)C(=O)N[C@@H](C)C(=O)NC(CCC(N)=O)C(O)C(F)(F)F (stereo partly drawn) [Example 70, N-((2S)-1-(((2R)-1-(((2S)-1-((6-Amino-1,1,1-trifluoro-2-hydroxy-6-oxohexan-3-yl)amino)-1-oxopropan-2-yl)amino)-1-oxo-3-phenylpropan-2-yl)amino)-3-methyl-1-oxobutan-2-yl)-[1,1′-biphenyl]-4-carboxamide]",118 ± 18 % DMSO Cnt,–
"CC(C)[C@H](NC(=O)c1ccc(-c2ccc(F)cc2)cc1)C(=O)N[C@@H](Cc1ccccc1)C(=O)N[C@@H](C)C(=O)NC(CCC(N)=O)C(O)C(F)(F)F (stereo partly drawn) [Example 52, N-((2S)-1-(((2S)-1-(((2S)-1-((6-Amino-1,1,1-trifluoro-2-hydroxy-6-oxohexan-3-yl)amino)-1-oxopropan-2-yl)amino)-1-oxo-3-phenylpropan-2-yl)amino)-3-methyl-1-oxobutan-2-yl)-4′-fluoro-[1,1′-biphenyl]-4-carboxamide]",138 ± 20 % DMSO Cnt,–
